Experimental data from US10011586B2, “Heterocyclic compound, method for preparing the same, and pharmaceutical composition comprising the same” (Daewoong Pharmaceutical Co., Ltd., priority 2015, dated 2018).
Where two headings read alike, the source gives them in different places.

Experiments:
PRS enzyme = molecular target: T1, PRS enzyme (Homo sapiens, UniProt P07814); assay: PRS enzyme activity inhibition experiment; format: biochemical
T1 construct: the portion corresponding to PRS in cDNA of EPRS was subcloned; made in house
T1 sequence (P07814 1007-1512 limits assumed): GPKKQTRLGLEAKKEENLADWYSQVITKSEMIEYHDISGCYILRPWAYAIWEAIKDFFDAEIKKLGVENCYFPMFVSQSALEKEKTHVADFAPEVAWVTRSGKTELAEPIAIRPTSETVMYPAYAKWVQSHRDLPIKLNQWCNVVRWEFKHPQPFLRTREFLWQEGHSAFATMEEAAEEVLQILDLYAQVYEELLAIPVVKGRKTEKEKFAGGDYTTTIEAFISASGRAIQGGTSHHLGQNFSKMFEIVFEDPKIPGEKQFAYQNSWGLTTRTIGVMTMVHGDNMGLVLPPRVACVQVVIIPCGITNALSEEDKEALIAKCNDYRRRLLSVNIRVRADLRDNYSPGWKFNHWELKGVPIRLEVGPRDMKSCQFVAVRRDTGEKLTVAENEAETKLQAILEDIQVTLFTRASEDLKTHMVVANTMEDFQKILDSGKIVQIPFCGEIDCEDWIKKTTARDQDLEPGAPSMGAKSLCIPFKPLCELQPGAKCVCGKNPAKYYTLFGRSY
Protocol: Specifically, the portion corresponding to PRS in cDNA of EPRS was subcloned, and the obtained high-purity PRS protein was purified and used in the experiment. The compounds (1 μM) prepared in Examples were added into the reaction buffer (20 mM KPO4 (pH 7.4), 6 mM MgAc, 5 mM ATP, […] tRNA, 0.5 mM DTT, […][^3H]proline (1 mCi/mL)) and allowed to react at 37° C. for 5 to 10 minutes. The reaction was terminated with 3M paper that was in advance dried by addition of 5% TCA. The radioactivity was measured using a liquid scintillation counter.
% Inhibition and IC50 values of the respective compounds were calculated and analyzed using Microsoft Excel or Sigma Plot 8.0. In Table 1, the results are divided into A, B and C according to the range of IC50.

NCI-H460 cells = assay: Cancer cell growth inhibition experiment (MTT assay); format: cell-based; conditions: Homo sapiens, lung cancer cell line, compounds 48 hours, cell viability by MTT assay
Protocol: NCl-H460 cells, lung cancer cell lines, were cultured in 5% CO2, 37° C. incubator using a flask for 75 cm^2 tissue culture. 96-well plates were used for the evaluation. These were prepared by differently applying at concentrations in the range of 6,000 to 12,000 cells/well according to the growth rate of the cell lines. The medium containing 5% FBS were dispensed in 200 μL/well and used. The medium were cultured for 24 hours. After confirming the cell status and dispensing form of a 96-well plate under a microscope, they were used for subsequent experiments. The compounds were evaluated at concentrations of 100, 30, 10, 3, 1, 0.3, 0.03, 0.01 μM. After removing the existing medium, the compounds with various concentrations were treated in an amount of 200 μL/well. The compounds-treated plates were further cultured for 48 hours, and the cell viabilities were measured by MTT assay to calculate IC50 values.
% Inhibition and IC50 values of the respective compounds were calculated and analyzed using Sigma Plot 8.0. In Table 2, the results are divided into A, B and C according to the range of IC50. The case where the derived IC50 is 3 μM or less is represented by “A”, the case where the IC50 is 3 to 10 μM is represented by “B”, and the case where the IC50 is 10 μM or higher is represented by “C”.

[1] = purified PRS protein subcloned from EPRS cDNA, [3H]proline, 37° C., 5 to 10 minutes, liquid scintillation counter, read-out: PRS IC50

Q: How did the IC50 (PRS enzyme; [1]) turn out when `O=C(C[C@H]1NCCC[C@@H]1O)Cn1cnc2c(-c3ccccc3)cccc21` [Example 1, 1-((2R,3S)-3-hydroxypiperidin-2-yl)-3-(4-phenyl-1H-benzo[d]imidazol-1-yl)propan-2-one] was run?
A: 100 to 500 nM

Q: And the IC50 (NCI-H460 cells)?
A: ≥ 10000 nM

Q: For `O=C(C[C@H]1NCCC[C@@H]1O)Cn1cnc2c(-c3cccc(F)c3)nccc21` [Example 2, 1-(4-(3-fluorophenyl)-1H-imidazo[4,5-c]pyridin-1-yl)-3-((2R,3S)-3-hydroxypiperidin-2-yl)propan-2-one], which IC50 (PRS enzyme; [1]) is on record?
A: > 500 nM

Q: For `O=C(C[C@H]1NCCC[C@@H]1O)Cn1cnc2c(-c3cccc(Cl)c3)nccc21` [Example 3, 1-(4-(3-chlorophenyl)-1H-imidazo[4,5-c]pyridin-1-yl)-3-((2R,3S)-3-hydroxypiperidin-2-yl)propan-2-one], which IC50 (PRS enzyme; [1]) is on record?
A: > 500 nM

Q: With `O=C(C[C@H]1NCCC[C@@H]1O)Cn1cnc2c(-c3cccc(C(F)(F)F)c3)nccc21` [Example 4, 1-((2R,3S)-3-hydroxypiperidin-2-yl)-3-(4-(3-(trifluoromethyl)phenyl)-1H-imidazo[4,5-c]pyridin-1-yl)propan-2-one] as the compound, how does the IC50 (PRS enzyme; [1]) read?
A: > 500 nM

Q: How did the IC50 (PRS enzyme; [1]) turn out when `O=C(C[C@H]1NCCC[C@@H]1O)Cn1cnc2c(-c3cc(F)cc(Cl)c3)nccc21` [Example 5, 1-(4-(3-chloro-5-fluorophenyl)-1H-imidazo[4,5-c]pyridin-1-yl)-3-((2R,3S)-3-hydroxypiperidin-2-yl)propan-2-one] was run?
A: > 500 nM

Q: With `O=C(C[C@H]1NCCC[C@@H]1O)Cn1cnc2c(-c3cc(Cl)cc(Cl)c3)nccc21` [Example 6, 1-(4-(3,5-dichlorophenyl)-1H-imidazo[4,5-c]pyridin-1-yl)-3-((2R,3S)-3-hydroxypiperidin-2-yl)propan-2-one] as the compound, how does the IC50 (PRS enzyme; [1]) read?
A: > 500 nM

Q: `O=C(C[C@H]1NCCC[C@@H]1O)Cn1cnc2c(N3CCCC3)nccc21` [Example 7, 1-((2R,3S)-3-hydroxypiperidin-2-yl)-3-(4-(pyrrolidin-1-yl)-1H-imidazo[4,5-c]pyridin-1-yl)propan-2-one] was tested. Which IC50 (NCI-H460 cells) did it give?
A: ≥ 10000 nM

Q: With `O=C(C[C@H]1NCCC[C@@H]1O)Cn1cnc2cc(-c3ccccc3)ccc21` [Example 8, 1-((2R,3S)-3-hydroxypiperidin-2-yl)-3-(5-phenyl-1H-benzo[d]imidazol-1-yl)propan-2-one] as the compound, how does the IC50 (PRS enzyme; [1]) read?
A: > 500 nM

Q: And the IC50 (NCI-H460 cells)?
A: ≥ 10000 nM

Q: How did the IC50 (PRS enzyme; [1]) turn out when `O=C(C[C@H]1NCCC[C@@H]1O)Cn1cnc2nc(-c3ccccc3F)ccc21` [Example 9, 1-(5-(2-fluorophenyl)-1H-imidazo[4,5-b]pyridin-1-yl)-3-((2R,3S)-3-hydroxypiperidin-2-yl)propan-2-one] was run?
A: > 500 nM

Q: For `O=C(C[C@H]1NCCC[C@@H]1O)Cn1cnc2nc(-c3cccc(F)c3)ccc21` [Example 10, 1-(5-(3-fluorophenyl)-1H-imidazo[4,5-b]pyridin-1-yl)-3-((2R,3S)-3-hydroxypiperidin-2-yl)propan-2-one], which IC50 (PRS enzyme; [1]) is on record?
A: > 500 nM

Q: `O=C(C[C@H]1NCCC[C@@H]1O)Cn1cnc2nc(-c3ccc(F)cc3)ccc21` [Example 11, 1-(5-(4-fluorophenyl)-1H-imidazo[4,5-b]pyridin-1-yl)-3-((2R,3S)-3-hydroxypiperidin-2-yl)propan-2-one] was tested. Which IC50 (PRS enzyme; [1]) did it give?
A: > 500 nM

Q: With `O=C(C[C@H]1NCCC[C@@H]1O)Cn1cnc2nc(-c3cccc(Cl)c3)ccc21` [Example 12, 1-(5-(3-chlorophenyl)-1H-imidazo[4,5-b]pyridin-1-yl)-3-((2R,3S)-3-hydroxypiperidin-2-yl)propan-2-one] as the compound, how does the IC50 (PRS enzyme; [1]) read?
A: > 500 nM

Q: `O=C(C[C@H]1NCCC[C@@H]1O)Cn1cnc2nc(-c3cccc(C(F)(F)F)c3)ccc21` [Example 13, 1-((2R,3S)-3-hydroxypiperidin-2-yl)-3-(5-(3-(trifluoromethyl)phenyl)-1H-imidazo[4,5-b]pyridin-1-yl)propan-2-one] was tested. Which IC50 (PRS enzyme; [1]) did it give?
A: > 500 nM

Q: How did the IC50 (PRS enzyme; [1]) turn out when `O=C(C[C@H]1NCCC[C@@H]1O)Cn1cnc2cc(-c3cccc(Cl)c3)cnc21` [Example 14, 1-(6-(3-chlorophenyl)-3H-imidazo[4,5-b]pyridin-3-yl)-3-((2R,3S)-3-hydroxypiperidin-2-yl)propan-2-one] was run?
A: 100 to 500 nM

Q: And the IC50 (NCI-H460 cells)?
A: ≥ 10000 nM

Q: `O=C(C[C@H]1NCCC[C@@H]1O)Cn1cnc2cc(-c3cccc(C(F)(F)F)c3)cnc21` [Example 15, 1-((2R,3S)-3-hydroxypiperidin-2-yl)-3-(6-(3-(trifluoromethyl)phenyl)-3H-imidazo[4,5-b]pyridin-3-yl)propan-2-one] was tested. Which IC50 (PRS enzyme; [1]) did it give?
A: > 500 nM

Q: With `Cc1c(-c2cccc(F)c2)ccc2c1ncn2CC(=O)C[C@H]1NCCC[C@@H]1O` [Example 16, 1-(5-(3-fluorophenyl)-4-methyl-1H-benzo[d]imidazol-1-yl)-3-((2R,3S)-3-hydroxypiperidin-2-yl)propan-2-one] as the compound, how does the IC50 (PRS enzyme; [1]) read?
A: 100 to 500 nM

Q: And the IC50 (NCI-H460 cells)?
A: ≥ 10000 nM

Q: Which IC50 (PRS enzyme; [1]) does the source give for `Cc1c(-c2cccc(Cl)c2)ccc2c1ncn2CC(=O)C[C@H]1NCCC[C@@H]1O` [Example 17, 1-(5-(3-chlorophenyl)-4-methyl-1H-benzo[d]imidazol-1-yl)-3-((2R,3S)-3-hydroxypiperidin-2-yl)propan-2-one] here?
A: 100 to 500 nM

Q: What about the IC50 (NCI-H460 cells) of the same compound?
A: ≥ 10000 nM

Q: Which IC50 (PRS enzyme; [1]) does the source give for `Cc1c(-c2ccccc2Cl)ccc2c1ncn2CC(=O)C[C@H]1NCCC[C@@H]1O` [Example 18, 1-(5-(2-chlorophenyl)-4-methyl-1H-benzo[d]imidazol-1-yl)-3-((2R,3S)-3-hydroxypiperidin-2-yl)propan-2-one] here?
A: > 500 nM

Q: What about the IC50 (NCI-H460 cells) of the same compound?
A: ≥ 10000 nM

Q: For `Cc1c(-c2ccc(Cl)cc2)ccc2c1ncn2CC(=O)C[C@H]1NCCC[C@@H]1O` [Example 19, 1-(5-(4-chlorophenyl)-4-methyl-1H-benzo[d]imidazol-1-yl)-3-((2R,3S)-3-hydroxypiperidin-2-yl)propan-2-one], which IC50 (PRS enzyme; [1]) is on record?
A: 100 to 500 nM

Q: What about the IC50 (NCI-H460 cells) of the same compound?
A: ≥ 10000 nM

Q: What does the source list for `Cc1c(-c2cccc(C#N)c2)ccc2c1ncn2CC(=O)C[C@H]1NCCC[C@@H]1O` [Example 20, 3-(1-(3-((2R,3S)-3-hydroxypiperidin-2-yl)-2-oxopropyl)-4-methyl-1H-benzo[d]imidazol-5-yl)benzonitrile]?
A: IC50 (PRS enzyme; [1]): > 500 nM; IC50 (NCI-H460 cells): ≥ 10000 nM

Q: Which results are given for `Cc1c(-c2cccc(C(F)(F)F)c2)ccc2c1ncn2CC(=O)C[C@H]1NCCC[C@@H]1O` [Example 21, 1-((2R,3S)-3-hydroxypiperidin-2-yl)-3-(4-methyl-5-(3-(trifluoromethyl)phenyl)-1H-benzo[d]imidazol-1-yl)propan-2-one]?
A: IC50 (PRS enzyme; [1]): 100 to 500 nM; IC50 (NCI-H460 cells): ≥ 10000 nM

Q: For `O=C(C[C@H]1NCCC[C@@H]1O)Cn1cnc2ncc(-c3cccc(C(F)(F)F)c3)cc21` [Example 42, 1-((2R,3S)-3-hydroxypiperidin-2-yl)-3-(6-(3-(trifluoromethyl)phenyl)-1H-imidazo[4,5-b]pyridin-1-yl)propan-2-one], which IC50 (PRS enzyme; [1]) is on record?
A: 100 to 500 nM

Q: With `O=C(C[C@H]1NCCC[C@@H]1O)Cn1cnc2cccc(-c3ccccc3C(F)(F)F)c21` [Example 52, 1-((2R,3S)-3-hydroxypiperidin-2-yl)-3-(7-(2-(trifluoromethyl)phenyl)-1H-benzo[d]imidazol-1-yl)propan-2-one] as the compound, how does the IC50 (PRS enzyme; [1]) read?
A: > 500 nM

Q: With `O=C(C[C@H]1NCCC[C@@H]1O)Cn1cnc2cccc(-c3cccc(C(F)(F)F)c3)c21` [Example 53, 1-((2R,3S)-3-hydroxypiperidin-2-yl)-3-(7-(3-(trifluoromethyl)phenyl)-1H-benzo[d]imidazol-1-yl)propan-2-one] as the compound, how does the IC50 (PRS enzyme; [1]) read?
A: > 500 nM

Q: With `O=C(C[C@H]1NCCC[C@@H]1O)Cn1c(CO)nc2cc(-c3ccccc3)ccc21` [Example 55, 1-(2-(hydroxymethyl)-5-phenyl-1H-benzo[d]imidazol-1-yl)-3-((2R,3S)-3-hydroxypiperidin-2-yl)propan-2-one] as the compound, how does the IC50 (PRS enzyme) read?
A: > 500 nM
